Assay results: US20190233884A1 (University of Southern California, priority 2016, published 2019)

System: patients with refractory metastatic colorectal cancer (mCRC)
Test: PFS, OS and disease control in the testing (validation) cohort of refractory mCRC patients receiving TAS-102 (n=129, Italy), by baseline characteristics, SNP genotype and toxicity
Type: in vivo, human
Conditions: validation cohort
Experimental: All patients underwent the treatment in salvage-line setting. […]
(§1) Genomic DNA was extracted from peripheral whole blood in patients of all cohorts using the QIAmp Kit (Qiagen, Valencia, Calif., USA) according to the manufacturer's protocol (www.qiagen.com). The candidate SNPs were genotyped using PCR-based direct DNA sequence analysis by ABI 3100A Capillary Genetic Analyzer and Sequencing Scanner v1.0 (Applied Biosystems). Amplification of extracted DNA was carried out using both forward and reverse primers for each gene polymorphism as shown in Table 1. […] The investigators analyzing SNPs were blinded to the clinical data of the study patients.
The primary endpoint in this study was progression-free survival (PFS), and the secondary endpoints were overall survival (OS) and disease control rate (DCR). PFS was calculated from the date of starting treatment to the first observation of disease progression or death from any cause. If a patient had no disease progression or death, PFS was censored at the date of last follow up. OS was calculated from the date of starting treatment until the date of death from any cause or the date of the last follow-up, at which point OS was censored. The disease control rate (DCR) was defined as the proportion of patients who achieved a stable disease (SD) or […] according to RECISTv1.1. Chi-square test was used to examine the difference in baseline patient characteristics among the three cohorts. Allelic distribution of all SNPs by ethnicity for deviation from Hardy-Weinberg equilibrium and the allelic frequencies of SNPs were tested using the Chi-square tests with one degree of freedom. The associations between candidate SNPs and disease control, and toxicities were examined using contingency tables and Fisher's exact test. The associations of SNPs with PFS and OS were analysed using Kaplan-Meier curves and the log-rank test. Because the true mode of inheritance of candidate SNPs was not established yet, a codominant or dominant genetic model if appropriate was considered.
All patients underwent the treatment in salvage-line setting. […] In all patients, adverse events were graded according to the Common Terminology Criteria for Adverse Events, version 4.0. […]
as §1, with “tested” for “genotyped”, “Biosystems).” for “Biosystems). Amplification of extracted DNA was carried out using both forward and reverse primers for each gene polymorphism as shown in Table 1.”, “data.” for “data of the study patients.”
The primary endpoint in this study was progression-free survival (PFS), and the secondary endpoints were overall survival (OS) and disease control rate (DCR).

[1] = ATM rs609429 C/G vs C/C (Ref.), multivariable
[2] = ATM rs609429 C/G vs C/C (Ref.), univariate
[3] = ATM rs609429 G/G vs C/C (Ref.), multivariable
[4] = ATM rs609429 G/G vs C/C (Ref.), univariate
[5] = Adjuvant Oxa No vs Yes (Ref.), univariate
[6] = Adjuvant history No vs Yes (Ref.), univariate
[7] = Age group ≥61 vs <61 (Ref.), univariate
[8] = BRAF status Mutant vs Wild type (Ref.), univariate
[9] = CHEK2 rs2267130 Any C vs T/T (Ref.), multivariable
[10] = CHEK2 rs2267130 Any C vs T/T (Ref.), univariate
[11] = CHEK2 rs2267130 C/C vs T/T (Ref.), multivariable
[12] = CHEK2 rs2267130 C/C vs T/T (Ref.), univariate
[13] = CHEK2 rs2267130 T/C vs T/T (Ref.), multivariable
[14] = CHEK2 rs2267130 T/C vs T/T (Ref.), univariate
[15] = Grading 3 vs 1-2 (Ref.), univariate
[16] = LN metastasis No vs Yes (Ref.), univariate
[17] = Liver metastasis No vs Yes (Ref.), univariate
[18] = Lung metastasis No vs Yes (Ref.), univariate
[19] = Mucinous histology No vs Yes (Ref.), univariate
[20] = Number of metastases >2 vs ≤2 (Ref.), univariate

Trifluridine/tipiracil [TAS-102] was tested, and the “Disease Control CR/PR/SD, patients n (%)” value (ATM rs609429 C/G) was 20 (32%), the “Median PFS (95% CI)” value (ATM rs609429 C/G) was 2.0 (1.9, 2.3) months and the “PD, patients n (%)” value (ATM rs609429 C/G) was 43 (68%). The “HR OS (95% CI)” value [1] was 0.71 (0.39, 1.30), the “HR PFS (95% CI)” value [1] was 0.77 (0.50, 1.20) and the “HR OS (95% CI)” value [2] was 0.71 (0.40, 1.26). The “HR PFS (95% CI)” value [2] was 0.76 (0.50, 1.16), the “Disease Control CR/PR/SD, patients n (%)” value (ATM rs609429 G/G) was 6 (40%) and the “Median OS (95% CI)” value (ATM rs609429 G/G) was 5.8 (2.7, 7.1+) months. For the same substance, the “Median PFS (95% CI)” value (ATM rs609429 G/G) was 2.0 (1.2, 6.1) months, the “PD, patients n (%)” value (ATM rs609429 G/G) was 9 (60%) and the “HR OS (95% CI)” value [3] was 1.43 (0.56, 3.65). For the same substance, the “HR PFS (95% CI)” value [3] was 1.32 (0.67, 2.59), the “HR OS (95% CI)” value [4] was 0.82 (0.34, 2.00) and the “HR PFS (95% CI)” value [4] was 0.85 (0.45, 1.63). The “Median OS” value (Adjuvant Oxa No) was 5.8 months, the “Median PFS” value (Adjuvant Oxa No) was 1.9 months and the “HR OS” value [5] was 1.17. The “HR PFS” value [5] was 1.06, the “Median OS” value (Adjuvant Oxa Yes) was 8.5+ months and the “Median PFS” value (Adjuvant Oxa Yes) was 2.0 months. For the same substance, the “Median OS” value (Adjuvant history No) was 5.5 months, the “Median PFS” value (Adjuvant history No) was 1.9 months and the “HR OS” value [6] was 1.23. The “HR PFS” value [6] was 1.25, the “Median OS” value (Adjuvant history Yes) was 8.5+ months and the “Median PFS” value (Adjuvant history Yes) was 2.0 months. The “Median OS” value (Age group <61) was 4.4 months, the “Median PFS” value (Age group <61) was 1.9 months and the “Median OS” value (Age group ≥61) was 9.0 months. For the same substance, the “Median PFS” value (Age group ≥61) was 2.0 months, the “HR OS” value [7] was 0.56 and the “HR PFS” value [7] was 0.61. The “Median OS” value (BRAF status Mutant) was 3.3 months, the “Median PFS” value (BRAF status Mutant) was 1.8 months and the “HR OS” value [8] was 2.38. The “HR PFS” value [8] was 1.40, the “Median OS” value (BRAF status Wild type) was 5.8 months and the “Median PFS” value (BRAF status Wild type) was 2.0 months. The “Disease Control CR/PR/SD, patients n (%)” value (CHEK2 rs2267130 Any C) was 29 (31%), the “Median OS (95% CI)” value (CHEK2 rs2267130 Any C) was 5.5 (4.4, 8.7+) months and the “Median PFS (95% CI)” value (CHEK2 rs2267130 Any C) was 2.0 (1.8, 2.3) months. For the same substance, the “PD, patients n (%)” value (CHEK2 rs2267130 Any C) was 65 (69%), the “HR OS (95% CI)” value [9] was 0.70 (0.38, 1.30) and the “HR PFS (95% CI)” value [9] was 1.05 (0.66, 1.67). For the same substance, the “HR OS (95% CI)” value [10] was 0.94 (0.52, 1.69), the “HR PFS (95% CI)” value [10] was 1.10 (0.71, 1.72) and the “Disease Control CR/PR/SD, patients n (%)” value (CHEK2 rs2267130 C/C) was 9 (29%). For the same substance, the “Median OS (95% CI)” value (CHEK2 rs2267130 C/C) was 5.4 (3.9, 7.1+) months, the “Median PFS (95% CI)” value (CHEK2 rs2267130 C/C) was 2.0 (1.8, 2.4) months and the “PD, patients n (%)” value (CHEK2 rs2267130 C/C) was 22 (71%). The “HR OS (95% CI)” value [11] was 0.48 (0.21, 1.09), the “HR PFS (95% CI)” value [11] was 0.87 (0.49, 1.54) and the “HR OS (95% CI)” value [12] was 0.95 (0.45, 2.00). The “HR PFS (95% CI)” value [12] was 1.08 (0.62, 1.86), the “Disease Control CR/PR/SD, patients n (%)” value (CHEK2 rs2267130 T/C) was 20 (32%) and the “Median PFS (95% CI)” value (CHEK2 rs2267130 T/C) was 2.0 (1.7, 2.3) months. For the same substance, the “PD, patients n (%)” value (CHEK2 rs2267130 T/C) was 43 (68%), the “HR OS (95% CI)” value [13] was 0.83 (0.44, 1.58) and the “HR PFS (95% CI)” value [13] was 1.17 (0.72, 1.91). The “HR OS (95% CI)” value [14] was 0.93 (0.50, 1.75), the “HR PFS (95% CI)” value [14] was 1.12 (0.69, 1.79) and the “Disease Control CR/PR/SD, patients n (%)” value (CHEK2 rs2267130 T/T) was 8 (24%). The “Median OS (95% CI)” value (CHEK2 rs2267130 T/T) was 5.8 (3.7, 9.0+) months, the “Median PFS (95% CI)” value (CHEK2 rs2267130 T/T) was 1.9 (1.9, 2.0) months and the “PD, patients n (%)” value (CHEK2 rs2267130 T/T) was 26 (76%). The “Median OS” value (Grading 1-2) was 9.0 months, the “Median PFS” value (Grading 1-2) was 2.1 months and the “Median OS” value (Grading 3) was 5.3 months. The “Median PFS” value (Grading 3) was 1.9 months, the “HR OS” value [15] was 1.38 and the “HR PFS” value [15] was 1.15. For the same substance, the “Median OS” value (LN metastasis No) was 5.4 months, the “Median PFS” value (LN metastasis No) was 2.0 months and the “HR OS” value [16] was 1.24. The “HR PFS” value [16] was 0.99, the “Median OS” value (LN metastasis Yes) was 8.8+ months and the “Median PFS” value (LN metastasis Yes) was 2.0 months. For the same substance, the “Median OS” value (Liver metastasis No) was 8.7+ months, the “Median PFS” value (Liver metastasis No) was 2.4 months and the “HR OS” value [17] was 0.69. For the same substance, the “HR PFS” value [17] was 0.52, the “Median OS” value (Liver metastasis Yes) was 5.4 months and the “Median PFS” value (Liver metastasis Yes) was 1.9 months. The “Median OS” value (Lung metastasis No) was 4.1 months, the “Median PFS” value (Lung metastasis No) was 1.9 months and the “HR OS” value [18] was 1.46. The “HR PFS” value [18] was 1.62, the “Median OS” value (Lung metastasis Yes) was 8.8+ months and the “Median PFS” value (Lung metastasis Yes) was 2.1 months. For the same substance, the “Median OS” value (Mucinous histology No) was 9.0 months, the “Median PFS” value (Mucinous histology No) was 2.0 months and the “HR OS” value [19] was 0.72. For the same substance, the “HR PFS” value [19] was 0.97, the “Median OS” value (Mucinous histology Yes) was 5.5 months and the “Median PFS” value (Mucinous histology Yes) was 1.9 months. For the same substance, the “Median OS” value (Number of metastases >2) was 8.8+ months, the “Median PFS” value (Number of metastases >2) was 2.0 months and the “HR OS” value [20] was 0.83. The “HR PFS” value [20] was 1.18, the “Median OS” value (Number of metastases ≤2) was 5.5 months and the “Median PFS” value (Number of metastases ≤2) was 2.0 months. The “Median OS” value (Performance status ECOG 0) was 9.0 months, the “Median PFS” value (Performance status ECOG 0) was 2.0 months and the “Median OS” value (Performance status ECOG 1+) was 4.1 months. The “Median PFS” value (Performance status ECOG 1+) was 1.9 months.
